The results in this text go back to ChEMBL document CHEMBL1157355, “Recent advances on phosphodiesterase 4 inhibitors for the treatment of asthma and chronic obstructive pulmonary disease” (J Med Chem, 2008).

pIC50, pKi: −log10 of the molar value.

Data set [1] in a line: Inhibition of PDE11.
A further data set relates to Rattus norvegicus. Put plainly: Inhibition of LPS-induced pulmonary inflammation in rat at 3 mg/kg, po. The data set is classed as functional.
Data set [2] in a line: Inhibition of PDE10.
Data set [3] can be described thus: Inhibition of PDE4.
The nature of data set [4]: Displacement of [3H]rolipram from PDE4 by RBA. On the technique in general: Displacement assays read how much labelled ligand stays bound in the presence of the test substance.
Data set [5] is described as follows: Toxicity in rat stomach assessed as reduction in ability to increase acid secretion. The data set is classed as tissue-based.
In data set [6] the test system is Blood. As to the kind of experiment: Inhibition of fMLP-induced LTB4 biosynthesis in human whole blood. The data set is classed as functional, tissue-based.
Data set [7] has as its target 3',5'-cyclic-AMP phosphodiesterase 4C (Homo sapiens, UniProt Q08493). As to the kind of experiment: Inhibition of human PDE4C.
Data set [8] deals with 3',5'-cyclic-AMP phosphodiesterase 4D (Homo sapiens, UniProt Q08499). As to the kind of experiment: Inhibition of human PDE4D.
Sequence of 3',5'-cyclic-AMP phosphodiesterase 4D (Q08499 whole entry): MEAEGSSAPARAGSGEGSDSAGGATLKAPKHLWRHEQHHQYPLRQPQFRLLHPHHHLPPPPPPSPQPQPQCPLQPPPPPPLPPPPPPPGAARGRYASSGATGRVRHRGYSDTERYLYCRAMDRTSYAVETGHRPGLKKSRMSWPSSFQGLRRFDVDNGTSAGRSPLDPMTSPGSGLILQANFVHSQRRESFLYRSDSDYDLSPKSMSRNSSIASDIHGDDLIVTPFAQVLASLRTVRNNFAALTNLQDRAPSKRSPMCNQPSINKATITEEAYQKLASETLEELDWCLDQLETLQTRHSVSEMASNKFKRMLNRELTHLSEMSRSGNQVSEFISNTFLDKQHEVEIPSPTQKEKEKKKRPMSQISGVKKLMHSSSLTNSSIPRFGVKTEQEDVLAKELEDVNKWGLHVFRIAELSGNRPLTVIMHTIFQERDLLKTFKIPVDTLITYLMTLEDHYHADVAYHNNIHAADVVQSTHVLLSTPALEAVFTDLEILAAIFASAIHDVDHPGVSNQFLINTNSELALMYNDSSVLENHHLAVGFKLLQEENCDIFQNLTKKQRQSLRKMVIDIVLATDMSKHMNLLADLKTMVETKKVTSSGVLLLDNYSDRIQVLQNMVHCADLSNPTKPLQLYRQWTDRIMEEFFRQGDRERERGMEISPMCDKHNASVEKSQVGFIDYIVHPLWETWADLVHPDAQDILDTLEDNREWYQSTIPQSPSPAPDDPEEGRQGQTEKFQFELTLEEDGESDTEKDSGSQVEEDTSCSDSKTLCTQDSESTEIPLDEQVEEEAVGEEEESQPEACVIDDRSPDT
For data set [9], the system named is Blood. As to the kind of experiment: Inhibition of LPS-induced TNFalpha release in human whole blood. The data set is classed as functional, tissue-based.
Data set [10] addresses 3',5'-cyclic-AMP phosphodiesterase 4A (Homo sapiens, UniProt P27815). Put plainly: Inhibition of human PDE4A.

Sequence of 3',5'-cyclic-AMP phosphodiesterase 4C (Q08493 whole entry): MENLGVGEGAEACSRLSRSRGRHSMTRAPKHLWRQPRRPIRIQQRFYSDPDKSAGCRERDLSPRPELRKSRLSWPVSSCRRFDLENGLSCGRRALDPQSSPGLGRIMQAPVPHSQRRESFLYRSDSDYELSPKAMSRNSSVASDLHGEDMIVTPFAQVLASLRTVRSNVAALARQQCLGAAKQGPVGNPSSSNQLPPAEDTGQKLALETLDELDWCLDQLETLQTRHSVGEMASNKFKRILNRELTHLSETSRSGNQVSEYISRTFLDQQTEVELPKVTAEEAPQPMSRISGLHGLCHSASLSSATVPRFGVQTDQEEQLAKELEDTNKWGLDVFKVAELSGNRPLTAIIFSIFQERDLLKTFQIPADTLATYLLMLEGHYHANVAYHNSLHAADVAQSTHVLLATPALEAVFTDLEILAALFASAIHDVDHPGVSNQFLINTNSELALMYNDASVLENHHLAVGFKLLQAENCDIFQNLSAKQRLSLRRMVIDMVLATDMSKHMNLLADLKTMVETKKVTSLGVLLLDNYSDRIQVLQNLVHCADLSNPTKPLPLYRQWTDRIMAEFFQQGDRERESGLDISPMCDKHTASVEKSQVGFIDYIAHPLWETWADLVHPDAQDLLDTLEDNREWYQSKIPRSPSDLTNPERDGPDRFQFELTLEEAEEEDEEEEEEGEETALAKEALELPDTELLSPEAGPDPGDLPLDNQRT
Sequence of 3',5'-cyclic-AMP phosphodiesterase 4A (P27815 whole entry): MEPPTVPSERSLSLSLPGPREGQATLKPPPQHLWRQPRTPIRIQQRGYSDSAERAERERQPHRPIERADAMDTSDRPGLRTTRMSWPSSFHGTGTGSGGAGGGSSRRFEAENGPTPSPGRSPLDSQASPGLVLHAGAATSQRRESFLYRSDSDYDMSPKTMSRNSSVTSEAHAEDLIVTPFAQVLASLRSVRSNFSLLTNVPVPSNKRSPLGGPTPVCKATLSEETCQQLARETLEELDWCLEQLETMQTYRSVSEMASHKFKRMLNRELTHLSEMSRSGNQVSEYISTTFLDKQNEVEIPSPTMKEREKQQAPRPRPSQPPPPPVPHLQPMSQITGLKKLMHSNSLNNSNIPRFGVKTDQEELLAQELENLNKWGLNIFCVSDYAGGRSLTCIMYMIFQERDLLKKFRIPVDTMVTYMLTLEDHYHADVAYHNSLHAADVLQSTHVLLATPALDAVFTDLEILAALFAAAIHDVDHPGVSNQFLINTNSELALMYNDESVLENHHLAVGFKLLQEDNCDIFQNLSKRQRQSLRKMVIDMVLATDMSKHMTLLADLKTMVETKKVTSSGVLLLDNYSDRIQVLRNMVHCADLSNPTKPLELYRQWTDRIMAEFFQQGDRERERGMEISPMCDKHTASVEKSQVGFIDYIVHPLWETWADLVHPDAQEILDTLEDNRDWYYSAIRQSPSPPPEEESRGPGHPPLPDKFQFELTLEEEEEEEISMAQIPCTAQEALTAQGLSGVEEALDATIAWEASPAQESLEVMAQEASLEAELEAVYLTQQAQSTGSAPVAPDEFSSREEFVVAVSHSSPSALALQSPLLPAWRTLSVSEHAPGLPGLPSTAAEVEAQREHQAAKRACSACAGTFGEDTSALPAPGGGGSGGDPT

The term pIC50 denotes −log10 of the IC50, conventionally taken in molar units. Usually inhibition in vivo stands for the drop in the measured response relative to a control, in per cent. Turning to `COc1ccc(-c2nc(C(=O)N3CCN(c4ncccn4)CC3)c(CN)o2)c2ccc(C(F)(F)F)nc12`, the values for the pIC50 in [1] and in data set [2] were 5.70 and 6.37, respectively. Moreover, in the data set on Rattus norvegicus, the inhibition in vivo at 3 mg/kg amounted to 64%.

Usually pKi stands for the negative decadic logarithm of the Ki, by convention in mol/L. A higher pKi goes with a small Ki. Consider `COc1ccc2c(Cc3c(Cl)cncc3Cl)nncc2c1OC1CCCC1`, for which the pIC50 in data set [3] is 7.28; in data set [5] it was 5.15. For the same compound, the pKi in [4] is 6.83.

Regarding `CC(C)C(=O)c1c(C(C)C)nn2ccccc12` [IBUDILAST], the negative logarithm of the IC50 (pIC50) in the data set with Blood [6] is 5.60; in data set [7], 6.62; in [8] it was 6.78; in the data set on Blood [9], 5.21; in data set [10] it was 7.27.
